Laboratory results: US9505709B2, “Compositions and methods relating to ionic salts of peptides” (Thetis Pharmaceuticals LLC, priority 2014, dated 2016)

Experiments:
[1] = Oral pharmacokinetics (oral gavage), plasma free EPA or free DHA; format: in vivo, Sprague-Dawley rats; details: rat
Method: Experiments via Oral Gavage: Oral pharmacokinetic parameters of TP-212 (Lysyl-Lysine Bis-EPA), TP-312 (Lysyl-Lysine Bis-DHA), EPA-EE, EPA FFA and DHA FFA were determined in Sprague-Dawley rats. EPA-EE is 97% pure ethyl ester form of eicosapentaenoic acid. It is the principal polyunsaturated fatty acid in Vascepa, an Omega-3 compound approved in the U.S. for the treatment of severe hypertriglyceridemia. EPA FFA is 97% pure free fatty acid form of eicosapentaenoic acid and DHA FFA is 98% pure free fatty acid DHA. EPA FFA and DHA FFA are the two principal poly-unsaturated fatty acids in Epanova, an Omega-3 compound approved in the U.S. for the treatment of severe hypertriglyceridemia. The subject drugs were administered by oral gavage as an aqueous solution in de-ionized water to 6 Sprague-Dawley rats per group (3 males and 3 females). Rats were dosed at 40 mg/kg. Blood samples were obtained from each rat by jugular vein catheter. Samples were collected at pre-dose and at 0.25, 0.5, 1, 2, 4, 8, 12 and 18 hours post dose. Blood samples were centrifuged to separate red blood cells and the resulting plasma samples were analyzed for free EPA or free DHA. Free EPA or […] extracted from rat plasma with hexane at acidic condition without hydrolysis. Detection was by MS-MS monitoring of negative ion for EPA or DHA. Calculated pharmacokinetic values are mean values from 6 rats for each study drug.
(§1) For all figures and tables, the data are adjusted as follows for comparative purposes. First, the actual plasma levels are baseline adjusted. Thus, for each study arm, the pre-dose level (time=0) is subtracted from the actual plasma levels at each time point, with negative values adjusted to zero. Second, these baseline adjusted values are further adjusted to be molar dose equivalent on a comparative basis among the study arms with respect to EPA or DHA payload (i.e., as if equal amounts of free fatty acid EPA or DHA are administered in each study arm).

[2] = Intravenous injection pharmacokinetics, plasma free EPA or free DHA; format: in vivo, Sprague-Dawley rats; details: rat
Method: Experiments via Intravenous Injection: TP-212 and TP-312 were administered by intravenous injection (20 mg/kg) to Sprague-Dawley rats (n=6/group—3 male and 3 female), and plasma was obtained from serial blood samples taken from each animal at scheduled times ([…]). Blood samples were centrifuged to separate red blood cells and the resulting plasma samples were analyzed for free EPA or free DHA. Free EPA or free DHA was extracted from rat plasma with hexane at acidic condition without hydrolysis. Detection was by MS-MS monitoring of negative ion for EPA or DHA. Calculated pharmacokinetic values are mean values from 6 rats for each study drug.
as §1

[3] = Stability analysis by 1H NMR of samples exposed to air and light; details: ambient temperature
Method: Stability analysis was performed using 1H NMR (400 MHz) with acetic acid-d4 at various time point (typically days 1, 14, 30 and 60) using samples exposed to air and light at ambient temperature (clear vials with no caps).

Balb/C mice = experiment: Ocular irritation after topical dosing to the cornea (hyperemia, squinting, discharge, lid swelling); format: in vivo; details: for Hyperemia: 3 μL drop in each eye four times daily for 3 days
Method: In an embodiment where the ophthalmic formulation is an aqueous formulation, it has been determined in mice that certain formulations can be administered to the surface of the eye without producing irritation that would make them unsuitable for such application. Irritation parameters of TP-211-1, TP-212-1, TP-311-1 and TP-312-1 related to hyperemia, squinting, and discharge were determined in Balb/C mice. Mice were dosed topically to the cornea using a calibrated micropipette, with a 3 μL drop of treatment in each eye four times daily for 3 consecutive days at various concentrations.
TP-211-1 is Lysyl-lysine EPA. TP-212-1 is Lysyl-lysine bis-EPA. TP-311-1 is Lysyl-lysine DHA. TP-312-1 is Lysyl-lysine bis-DHA. The study drugs were prepared using phosphate buffered saline (PBS) to reach target concentrations ranging from 0.1% to 1.0%.
The animals were monitored for scratching at the eye or any other abnormal behavior post-dose. Ocular exams were conducted on Days 1 and 3 with use of a Micron III camera system to take high resolution videos of the right eye of each animal Clinical signs including but not limited to hyperemia, discharge, lid swelling, and squinting were evaluated by trained personnel who was masked as to group assignment. Each clinical sign was graded on a scale of 0-4, with the exception of lid swelling which was graded on a scale of 0-2. Scores were averaged and are expressed as the mean±SEM for each group. Statistical significance was assessed between the treatment arms and the vehicle group. Any significance is noted by asterisks (*=p<0.05, **=p<0.01, ***=p<0.001).

[4] = oral gavage 40 mg/kg, molar dose equivalent, baseline adjusted
[5] = intravenous injection 20 mg/kg, molar dose equivalent, baseline adjusted

SMILES: CC/C=C\C/C=C\C/C=C\C/C=C\C/C=C\CCCC(=O)O.CC/C=C\C/C=C\C/C=C\C/C=C\C/C=C\CCCC(=O)O.NCCCC[C@H](NC(=O)[C@@H](N)CCCCN)C(=O)O [Compound 2, (L,L) Lysyl-lysine bis-EPA]
- Tmax (free EPA) ([1]; oral gavage 40 mg/kg): 30 min
- Plasma level of free EPA ([1]; oral gavage 40 mg/kg, 0 h (pre-dose), molar dose equivalent, baseline adjusted): 0 ng/mL
- Plasma level of free EPA ([1]; oral gavage 40 mg/kg, 0.25 h (15 min), molar dose equivalent, baseline adjusted): 300 ng/mL
- Plasma level of free EPA ([1]; oral gavage 40 mg/kg, 0.5 h (30 min), molar dose equivalent, baseline adjusted): 9500 ng/mL
- Plasma level of free EPA ([1]; oral gavage 40 mg/kg, 1 h (60 min), molar dose equivalent, baseline adjusted): 3900 ng/mL
- Plasma level of free EPA ([1]; oral gavage 40 mg/kg, 2 h (120 min), molar dose equivalent, baseline adjusted): 3200 ng/mL
- Plasma level of free EPA ([1]; oral gavage 40 mg/kg, 4 h (240 min), molar dose equivalent, baseline adjusted): 1500 ng/mL
- Plasma level of free EPA ([1]; oral gavage 40 mg/kg, 8 h, molar dose equivalent, baseline adjusted): 600 ng/mL
- Plasma level of free EPA ([1]; oral gavage 40 mg/kg, 12 h, molar dose equivalent, baseline adjusted): 0 ng/mL
- Plasma level of free EPA ([1]; oral gavage 40 mg/kg, 18 h, molar dose equivalent, baseline adjusted): 0 ng/mL
- AUC 0-1 hrs (free EPA) [1, 4]: 4600 ng·h/mL
- AUC 0-4 hrs (free EPA) [1, 4]: 12800 ng·h/mL
- AUC 0-18 hrs (free EPA) [1, 4]: 18300 ng·h/mL
- Cmax (free EPA) [1, 4]: 9500 ng/mL
- AUC over 18 hours (free EPA), times greater than EPA-EE ([1]; oral gavage): approximately 2.6 times
- AUC over 18 hours (free EPA), times greater than EPA-FFA ([1]; oral gavage): ~1.8 times
- Cmax (free EPA), times greater than EPA-EE ([1]; oral gavage): approximately 8.9 times
- Cmax (free EPA), times greater than EPA-FFA ([1]; oral gavage): ~7.4 times
- Tmax (free EPA) ([2]; intravenous injection 20 mg/kg): 1 min
- Plasma level of free EPA ([2]; intravenous injection 20 mg/kg, 0 min, molar dose equivalent, baseline adjusted): 0 ng/mL
- Plasma level of free EPA ([2]; intravenous injection 20 mg/kg, 1 min, molar dose equivalent, baseline adjusted): 34500 ng/mL
- Plasma level of free EPA ([2]; intravenous injection 20 mg/kg, 5 min, molar dose equivalent, baseline adjusted): 6600 ng/mL
- Plasma level of free EPA ([2]; intravenous injection 20 mg/kg, 10 min, molar dose equivalent, baseline adjusted): 6400 ng/mL
- Plasma level of free EPA ([2]; intravenous injection 20 mg/kg, 15 min, molar dose equivalent, baseline adjusted): 11400 ng/mL
- Plasma level of free EPA ([2]; intravenous injection 20 mg/kg, 30 min, molar dose equivalent, baseline adjusted): 8800 ng/mL
- Plasma level of free EPA ([2]; intravenous injection 20 mg/kg, 60 min, molar dose equivalent, baseline adjusted): 4600 ng/mL
- Plasma level of free EPA ([2]; intravenous injection 20 mg/kg, 120 min, molar dose equivalent, baseline adjusted): 2300 ng/mL
- Plasma level of free EPA ([2]; intravenous injection 20 mg/kg, 240 min, molar dose equivalent, baseline adjusted): 1800 ng/mL
- AUC 0-1 hrs (free EPA) [2, 5]: 8300 ng·h/mL
- AUC 0-4 hrs (free EPA) [2, 5]: 15900 ng·h/mL
- Cmax (free EPA) [2, 5]: 34500 ng/mL
- AUC over 1 hour (free EPA), times greater than EPApo ([2]; intravenous vs oral gavage): ~13.4 times
- AUC over 1 hour (free EPA), times greater than TP-212po ([2]; intravenous vs oral gavage): approximately 1.8 times
- AUC over 4 hours (free EPA), times greater than EPApo ([2]; intravenous vs oral gavage): ~5.1 times
- AUC over 4 hours (free EPA), times greater than TP-212po ([2]; intravenous vs oral gavage): approximately 1.2 times
- Cmax (free EPA), times greater than EPA-FFApo ([2]; intravenous vs oral gavage): ~27 times
- Cmax (free EPA), times greater than TP-212po ([2]; intravenous vs oral gavage): approximately 3.6 times
- Stability by NMR (amount of sample remaining relative to original sample) ([3]; Day 3): 1 (1 = >95%)
- Stability by NMR (amount of sample remaining relative to original sample) ([3]; Day 14): 1 (1 = >95%)
- Stability by NMR (amount of sample remaining relative to original sample) ([3]; Day 30): 1 (1 = >95%)
- Stability by NMR (amount of sample remaining relative to original sample) ([3]; Day 60): 1 (1 = >95%)
- Hyperemia (Balb/C mice; 0.5% concentration in PBS): increase in hyperemia (but not squinting) after the first dose
- Squinting (Balb/C mice; 0.5% concentration in PBS, topical to cornea): not squinting
- Hyperemia (Balb/C mice; 1.0% concentration in PBS): increase in hyperemia (but not squinting) after the first dose
- Squinting (Balb/C mice; 1.0% concentration in PBS, topical to cornea): not squinting
- Irritation, overall conclusion (Balb/C mice; concentrations of less than 1.0%, topical to cornea, repeat dosing): may cause some initial irritation upon the very first installation, but the animals acclimated well to repeat dosing
- Hyperemia at last dose / final evaluation (Balb/C mice; concentrations that showed an initial increase or all tested, last dose / final evaluation (Day 3)): returned to baseline levels by the final evaluation
